From patent publication EP3360553B1, “MOLECULES AND PHARMACEUTICAL COMPOSITIONS, IN PARTICULAR FOR TREATING A GENETIC BLOOD DISORDER” (Université de La Réunion, priority 2017, dated 2018)

How the values were obtained:
laminin 521 [1] = test: Red blood cell adhesion to laminin 521 under flow conditions; format: cell-based; settings: RBCs from sickle cell disease patients incubated with molecule at 0.1 mM for 30 min at room temperature, recombinant human laminin 521, 3 blood samples
Procedure: (§1) In the figures: • Figure 1: Adhesion of RBCs from sickle cell disease patients (N = 3) to laminin 521. Results are presented as a percentage of adhesion, 100% of adhesion being the adhesion level observed for RBCs incubated with buffer supplemented with DMSO alone. • Figure 2: Adhesion of RBCs from sickle cell disease patients to laminin 521 in the presence of increasing concentrations of Molecule 2 and Molecule 3. Results are presented as a percentage of adhesion, 100% of adhesion being the adhesion level observed for RBCs incubated without the molecules.
Red blood cell adhesion to laminin 521 was measured under flow conditions using Vena8 Endothelial+™ biochips (internal channel dimensions: length 20 mm, width 0.8 mm, height 0.12 mm) and ExiGo™ Nanopumps (Cellix Ltd, Dublin, Ireland). Three different solutions were prepared with either Molecule 1, Molecule 2 or Molecule 3 (0.1 mM) by solubilizing Molecule 1, 2 or 3 using DMSO. Recombinant human laminin 521 (BioLamina) at 5 ng/µl was immobilized on the internal surface of the biochips at 4°C overnight. RBCs from sickle cell disease patients were suspended at 5x10^7 cells/ml in Hanks balanced salt solution, without calcium chloride and magnesium sulfate (Sigma-Aldrich) supplemented with 0.4% BSA, and incubated with the solution comprising either Molecule 1, Molecule 2 or Molecule 3 at 0.1 mM or DMSO, for 30 min at room temperature (20°C) and perfused through the biochip channels for 10 min at a shear stress of 0.5 dyn/cm^2 followed by a washout at the same shear stress with the buffer alone for 30 min. Five minutes washouts with the Hanks/0.4% BSA buffer were performed at 1, 2, 3, 4 and 5 dyn/cm^2. After each wash, adherent RBCs were counted in 7 representative areas along the centerline of each channel using the AxioObserver Z1 microscope and ZEN analysis software (Carl Zeiss, Le Pecq, France) and the mean number of adherent RBCs was determined for each condition and each washout step (Figure 1). Images of the same 7 areas were obtained throughout each experiment. […]

RBCs = test: Control of hemolysis (RBC concentration by CASY Cell Counter and Analyzer); format: cell-based; settings: 0.1 mM, 30 min incubation at room temperature; for RBCs/ml (x10^6): Hanks/0.4% BSA buffer, RBCs suspended at 6x10^6 cells/ml; for decrease of RBC concentration compared to vehicle (DMSO) alone: result in words
Procedure: (§2) At the end of the 30 min of incubation with the molecules, the number of RBC for the control of hemolysis was measure by using CASY® Cell Counter and Analyzer.
(§3) For hemolysis assays, RBCs were suspended at 6x10^6 cells/ml in the Hanks/0.4% BSA buffer and the concentration measured accurately using the CASY® Cell Counter and Analyzer. RBCs were then incubated with the solution comprising either Molecule 1, Molecule 2 or Molecule 3 at 0.1 mM or DMSO, for 30 min at room temperature. After this incubation time cell concentration was measured again using CASY® Cell Counter and Analyzer (Table 1). If hemolysis occurs during this incubation time it will be reflected by a decrease in the RBC concentration.

[2] = as above; format: cell-based; settings: red blood cells; 0.1 mM, 30 min incubation at room temperature; compared to vehicle (DMSO); read-out: decrease of the RBC concentration
Procedure: as §2, §3

laminin 521 [3] = test: Dose effect in the RBC adhesion assay to laminin 521; format: cell-based, human; settings: 50, 100 and 200 µM; RBCs from sickle cell disease patients; same conditions as Example 1
Procedure: as §1
Red blood cell adhesion to laminin 521 was measured under flow conditions using Vena8 Endothelial+™ biochips (internal channel dimensions: length 20 mm, width 0.8 mm, height 0.12 mm) and ExiGo™ Nanopumps (Cellix Ltd, Dublin, Ireland). Three different solutions were prepared with either Molecule 1, Molecule 2 or Molecule 3 (0.1 mM) by solubilizing Molecule 1, 2 or 3 using DMSO. Recombinant human laminin 521 (BioLamina) at 5 ng/µl was immobilized on the internal surface of the biochips at 4°C overnight. […] After each wash, adherent RBCs were counted in 7 representative areas along the centerline of each channel using the AxioObserver Z1 microscope and ZEN analysis software (Carl Zeiss, Le Pecq, France) and the mean number of adherent RBCs was determined for each condition and each washout step (Figure 1). […]

SMILES: CCC(=O)N1CCc2ccc(OCc3nc(C(=O)NCc4ccccc4)co3)cc2C1c1ccc(C)cc1 (centres unmarked) [Molecule 1]
- RBC adhesion to laminin (laminin 521 [1]): not
- RBCs/ml (x10^6) (RBCs): 6.04 x10^6 RBCs/ml
- decrease of RBC concentration compared to vehicle (DMSO) alone (RBCs): no decrease

SMILES: Cc1c(CC(=O)NC(C(=O)O)c2ccccc2)c(=O)oc2c(C)c3oc4c(c3cc12)CCCC4 (centres unmarked) [Molecule 2]
- RBC adhesion to laminin (laminin 521 [1]): inhibited
- hemolysis at 0.5 h, 100 µM [2]: < 10%
- RBCs/ml (x10^6) (RBCs): 5.55 x10^6 RBCs/ml
- inhibition of RBC adhesion to laminin with increasing concentrations (laminin 521 [3]): increasing inhibition

SMILES: O=S(=O)(O)CCCn1c(=NN=Cc2c(O)ccc3ccccc23)sc2ccccc21 [Molecule 3]
- RBC adhesion to laminin (laminin 521 [1]): inhibited
- RBCs/ml (x10^6) (RBCs): 6.02 x10^6 RBCs/ml
- decrease of RBC concentration compared to vehicle (DMSO) alone (RBCs): no decrease
- inhibition of RBC adhesion to laminin with increasing concentrations (laminin 521 [3]): increasing inhibition
